These results are taken from US10287255B2, “Compounds as histone deacetylase 6 inhibitors and pharmaceutical compositions comprising the same” (CHONG KUN DANG PHARMACEUTICAL CORP., priority 2014, dated 2019).

For one assay, the target named is T1, human recombinant HDAC1 (Homo sapiens, UniProt Q13547).
T1 construct: purchased Enzo Life Science BML-SE456
The assay is described as follows: HDAC1 enzyme activity inhibition assay (in vitro, fluorimetric). It counts as biochemical. The conditions noted are these: human recombinant HDAC1, fluorimetric kit, 30° C. 60 minutes. An outline of the steps: (§1)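 IC50 values derive from fluorescence (Ex 360, Em 460) after developer treatment (30 min) of reactions of recombinant human HDAC1 or HDAC6 with 10 μM Fluor de Lys-SIRT1 substrate (60 min, 30 °C). Compounds were serially diluted 5-fold; 0.3 μg enzyme was used for HDAC1, with HDAC6 tested identically.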

Another assay addresses T2, human recombinant HDAC6 (Homo sapiens, UniProt Q9UBN7).
T2 construct: purchased Calbiochem 382180
T2 sequence (Q9UBN7 1-1215): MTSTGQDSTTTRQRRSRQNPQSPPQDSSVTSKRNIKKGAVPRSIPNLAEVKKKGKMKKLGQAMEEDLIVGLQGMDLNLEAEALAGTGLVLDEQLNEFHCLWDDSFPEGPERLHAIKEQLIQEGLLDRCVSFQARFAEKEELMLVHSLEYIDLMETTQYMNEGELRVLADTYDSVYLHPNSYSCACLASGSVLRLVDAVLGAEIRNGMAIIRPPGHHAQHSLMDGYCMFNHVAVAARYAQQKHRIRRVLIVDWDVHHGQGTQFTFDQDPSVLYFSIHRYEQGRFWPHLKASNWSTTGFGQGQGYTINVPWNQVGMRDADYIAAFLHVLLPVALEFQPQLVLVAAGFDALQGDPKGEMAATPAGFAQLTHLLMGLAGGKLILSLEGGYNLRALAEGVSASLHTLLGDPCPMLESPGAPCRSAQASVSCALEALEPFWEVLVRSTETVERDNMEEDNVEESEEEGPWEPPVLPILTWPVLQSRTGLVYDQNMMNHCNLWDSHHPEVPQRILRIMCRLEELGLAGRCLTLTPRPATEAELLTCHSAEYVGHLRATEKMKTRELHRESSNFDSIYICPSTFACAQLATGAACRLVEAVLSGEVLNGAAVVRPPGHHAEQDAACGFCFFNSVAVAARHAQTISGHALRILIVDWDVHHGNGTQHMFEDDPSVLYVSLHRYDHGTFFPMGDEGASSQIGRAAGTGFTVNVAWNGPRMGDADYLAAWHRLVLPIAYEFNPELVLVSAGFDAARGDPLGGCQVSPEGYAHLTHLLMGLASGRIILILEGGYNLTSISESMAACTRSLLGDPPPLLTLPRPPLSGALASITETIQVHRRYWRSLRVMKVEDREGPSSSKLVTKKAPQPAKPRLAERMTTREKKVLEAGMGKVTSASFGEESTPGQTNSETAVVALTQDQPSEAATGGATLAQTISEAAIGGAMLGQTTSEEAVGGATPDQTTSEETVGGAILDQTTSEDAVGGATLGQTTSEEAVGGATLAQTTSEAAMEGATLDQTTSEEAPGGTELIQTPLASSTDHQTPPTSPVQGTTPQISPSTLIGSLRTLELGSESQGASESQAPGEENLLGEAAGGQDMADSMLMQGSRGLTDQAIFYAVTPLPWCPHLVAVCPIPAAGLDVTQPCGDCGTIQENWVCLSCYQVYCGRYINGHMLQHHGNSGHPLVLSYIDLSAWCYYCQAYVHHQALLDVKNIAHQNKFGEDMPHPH
The assay is described as follows: HDAC6 enzyme activity inhibition assay (in vitro, fluorimetric). The conditions noted are these: for HDAC6 selectivity (fold): HDAC6 selectivity over HDAC1; for IC50: human recombinant HDAC6, fluorimetric kit, same protocol as HDAC1. Format: biochemical. An outline of the steps:
as §1

Molecules are shown by their SMILES. Where only a bound is given, the exact number is not on record here.

T1 sequence (Q13547 whole entry): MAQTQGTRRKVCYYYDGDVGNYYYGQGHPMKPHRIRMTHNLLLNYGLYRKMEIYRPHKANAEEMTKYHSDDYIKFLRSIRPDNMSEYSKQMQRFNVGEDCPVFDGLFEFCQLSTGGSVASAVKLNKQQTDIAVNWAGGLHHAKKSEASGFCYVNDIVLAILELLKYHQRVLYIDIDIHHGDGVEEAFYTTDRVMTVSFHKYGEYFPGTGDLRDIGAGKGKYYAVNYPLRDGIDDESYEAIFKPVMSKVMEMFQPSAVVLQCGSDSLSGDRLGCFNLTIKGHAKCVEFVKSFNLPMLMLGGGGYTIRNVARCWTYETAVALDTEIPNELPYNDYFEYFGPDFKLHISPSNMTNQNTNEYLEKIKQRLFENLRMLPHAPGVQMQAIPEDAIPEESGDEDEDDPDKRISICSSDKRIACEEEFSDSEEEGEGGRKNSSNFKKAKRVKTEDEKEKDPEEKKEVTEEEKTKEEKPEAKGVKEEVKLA

With `CC(C)N1CCN(Cc2cccc(CN3[C@H](C)CN(Cc4ccc(C(=O)NO)cc4)C[C@@H]3C)c2)CC1` [Compound 430, N-hydroxy-4-(((3R,5S)-4-(3-((4-isopropylpiperazin-1-yl)methyl)benzyl)-3,5-dimethylpiperazin-1-yl)methyl)benzamide], the IC50 – broadly, the midpoint of a concentration-inhibition curve – on human recombinant HDAC1 was found to be 4.5 µM. On human recombinant HDAC6, the “HDAC6 selectivity (fold)” value is 55 fold and the IC50 worked out at 0.082 µM.

As for `C[C@@H]1CN(Cc2ccc(C(=O)NO)cc2)C[C@H](C)N1C(=O)c1ccccc1` [Compound 083, 4-(((3R,5S)-4-benzoyl-3,5-dimethylpiperazin-1-yl)methyl)-N-hydroxybenzamide], on human recombinant HDAC1, the IC50 is 2 µM. Besides, on human recombinant HDAC6, the “HDAC6 selectivity (fold)” value is reported as 201 fold and the IC50 was 0.01 µM.

Regarding `C[C@@H]1CN(C(=O)NCc2cccc(F)c2)C[C@H](C)N1Cc1ccc(C(=O)NO)cc1` [Compound 231, (3R,5S)-N-(3-fluorobenzyl)-4-(4-(hydroxycarbamoyl)benzyl)-3,5-dimethylpiperazine-1-carboxamide], the IC50 on human recombinant HDAC1 amounted to 1.5 µM. Moreover, on human recombinant HDAC6, the “HDAC6 selectivity (fold)” value is given as 2 fold and the IC50 stood at 0.763 µM.

Take `C[C@@H]1CN(C(=O)Nc2ccc3c(c2)CCO3)C[C@H](C)N1Cc1ccc(C(=O)NO)cc1` [Compound 187, (3R,5S)-N-(2,3-dihydrobenzofuran-5-yl)-4-(4-(hydroxycarbamoyl)benzyl)-3,5-dimethylpiperazine-1-carboxamide]: on human recombinant HDAC1, the IC50 stood at 1.1 µM. At human recombinant HDAC6, the “HDAC6 selectivity (fold)” value amounted to 5 fold and the IC50 was 0.239 µM.

Consider `C[C@@H]1CN(Cc2ccc(C(=O)NO)cc2)C[C@H](C)N1Cc1ccc(CN2CCOCC2)cc1` [Compound 376, 4-(((3R,5S)-3,5-dimethyl-4-(4-(morpholinomethyl)benzyl)piperazin-1-yl)methyl)-N-hydroxybenzamide], for which, at human recombinant HDAC1, the IC50 was over 10 µM. Further, on human recombinant HDAC6, the “HDAC6 selectivity (fold)” value was over 119 fold and the IC50 was 0.084 µM.

Consider `C[C@@H]1CN(C(=O)c2cccnc2)C[C@H](C)N1Cc1ccc(C(=O)NO)cc1` [Compound 112, 4-(((2S,6R)-2,6-dimethyl-4-nicotinoylpiperazin-1-yl)methyl)-N-hydroxybenzamide], for which, at human recombinant HDAC1, the IC50 is over 10 µM. In addition, at human recombinant HDAC6, the “HDAC6 selectivity (fold)” value is over 65 fold and the IC50 is 0.154 µM.

Consider `CCN1CCN(Cc2cccc(C(=O)N3[C@H](C)CN(Cc4ccc(C(=O)NO)cc4)C[C@@H]3C)c2)CC1` [Compound 433, 4-(((3R,5S)-4-(3-((4-ethylpiperazin-1-yl)methyl)benzoyl)-3,5-dimethylpiperazin-1-yl)methyl)-N-hydroxybenzamide], for which the IC50 on human recombinant HDAC1 was 3.5 µM; at human recombinant HDAC6, 0.049 µM. Also, the “HDAC6 selectivity (fold)” value at human recombinant HDAC6 is recorded as 71 fold.

With `C[C@@H]1CN(Cc2ccc(C(=O)NO)cc2)C[C@H](C)N1C(=O)c1cccc(-c2ccco2)c1` [Compound 242, 4-(((3R,5S)-4-(3-(furan-2-yl)benzoyl)-3,5-dimethylpiperazin-1-yl)methyl)-N-hydroxybenzamide], the IC50 at human recombinant HDAC1 was determined as 2.4 µM. At human recombinant HDAC6, the “HDAC6 selectivity (fold)” value was 24 fold and the IC50 stood at 0.098 µM.

For the compound `C[C@@H]1CN(Cc2ccc(C(=O)NO)cc2)C[C@H](C)N1Cc1ccccc1-c1ccncc1` [Compound 329, 4-(((3R,5S)-3,5-dimethyl-4-(2-(pyridin-4-yl)benzyl)piperazin-1-yl)methyl)-N-hydroxybenzamide], the IC50 on human recombinant HDAC1 was 14.6 µM. In addition, at human recombinant HDAC6, the “HDAC6 selectivity (fold)” value is listed as 280 fold and the IC50 is 0.052 µM.

In the case of `C[C@@H]1CN(S(=O)(=O)c2ccc(CC(=O)NO)cc2)C[C@H](C)N1Cc1ccccc1` [Compound 820, 2-(4-(((3R,5S)-4-benzyl-3,5-dimethylpiperazin-1-yl)sulfonyl)phenyl)-N-hydroxyacetamide], the IC50 at human recombinant HDAC1 was 2.25 µM. Moreover, at human recombinant HDAC6, the “HDAC6 selectivity (fold)” value is given as 9 fold and the IC50 worked out at 0.25 µM.

On to `C[C@@H]1CN(Cc2ccc(C(=O)NO)cc2)C[C@H](C)N1C(=O)c1ccc(CN2CCOCC2)cc1` [Compound 458, 4-(((3R,5S)-3,5-dimethyl-4-(4-(morpholinomethyl)benzoyl)piperazin-1-yl)methyl)-N-hydroxybenzamide], for which, at human recombinant HDAC1, the IC50 was found to be 6.1 µM. In addition, at human recombinant HDAC6, the “HDAC6 selectivity (fold)” value is on record as 21 fold and the IC50 is 0.286 µM.

On to `C[C@@H]1CN(Cc2ccc(C(=O)NO)cc2)C[C@H](C)N1Cc1cccc(C2=CCC(C)(C)CC2)c1` [Compound 347, 4-(((3R,5S)-4-((4′,4′-dimethyl-2′,3′,4′,5′-tetrahydro-[1,1′-biphenyl]-3-yl)methyl)-3,5-dimethylpiperazin-1-yl)methyl)-N-hydroxybenzamide], for which the IC50 is over 10 µM on human recombinant HDAC1 and 0.408 µM on human recombinant HDAC6. Also, on human recombinant HDAC6, the “HDAC6 selectivity (fold)” value was over 25 fold.

As for `C[C@@H]1CN(CC(C)(C)F)C[C@H](C)N1Cc1ccc(C(=O)NO)cc1` [Compound 193, 4-(((2S,6R)-4-(2-fluoro-2-methylpropyl)-2,6-dimethylpiperazin-1-yl)methyl)-N-hydroxybenzamide], the IC50 on human recombinant HDAC1 is 16.3 µM. In addition, at human recombinant HDAC6, the “HDAC6 selectivity (fold)” value came out at 60 fold and the IC50 worked out at 0.271 µM.

As for `C[C@@H]1CN(C(=O)Cc2cccc(-c3ccccc3)c2)C[C@H](C)N1Cc1ccc(C(=O)NO)cc1` [Compound 250, 4-(((2S,6R)-4-(2-([1,1′-biphenyl]-3-yl)acetyl)-2,6-dimethylpiperazin-1-yl)methyl)-N-hydroxybenzamide], the IC50 on human recombinant HDAC1 turned out to be 9.5 µM. On human recombinant HDAC6, the “HDAC6 selectivity (fold)” value is 57 fold and the IC50 was 0.168 µM.

Turning to `C[C@@H]1CN(Cc2ccc(C(=O)NO)cc2)C[C@H](C)N1C(=O)c1ccccc1-c1cccnc1` [Compound 286, 4-(((3R,5S)-3,5-dimethyl-4-(2-(pyridin-3-yl)benzoyl)piperazin-1-yl)methyl)-N-hydroxybenzamide], the values for the IC50 on human recombinant HDAC1 and on human recombinant HDAC6 were 13.1 µM and 0.161 µM, respectively. Besides, at human recombinant HDAC6, the “HDAC6 selectivity (fold)” value was found to be 81 fold.

Regarding `C[C@@H]1CN(Cc2ccc(C(=O)NO)cc2)C[C@H](C)N1CCCC(F)(F)F` [Compound 204, 4-(((3R,5S)-3,5-dimethyl-4-(4,4,4-trifluorobutyl)piperazin-1-yl)methyl)-N-hydroxybenzamide], the IC50 on human recombinant HDAC1 is over 10 µM. Also, on human recombinant HDAC6, the “HDAC6 selectivity (fold)” value was over 12 fold and the IC50 was determined as 0.807 µM.

In the case of `C[C@@H]1CN(CCCCCC(=O)NO)C[C@H](C)N1Cc1ccccc1` [Compound 154, 6-((3R,5S)-4-benzyl-3,5-dimethylpiperazin-1-yl)-N-hydroxyhexanamide], at human recombinant HDAC1, the IC50 amounted to 8.4 µM. Besides, on human recombinant HDAC6, the “HDAC6 selectivity (fold)” value is 44 fold and the IC50 is 0.193 µM.

On to `C[C@@H]1CN(Cc2ccc(/C=C/C(=O)NO)cc2)C[C@H](C)N1C(=O)c1ccco1` [Compound 322, (E)-3-(4-(((3R,5S)-4-(furan-2-carbonyl)-3,5-dimethylpiperazin-1-yl)methyl)phenyl)-N-hydroxyacrylamide], for which the IC50 on human recombinant HDAC1 was 1.1 µM. Besides, at human recombinant HDAC6, the “HDAC6 selectivity (fold)” value came to 6 fold and the IC50 stood at 0.175 µM.

For `C[C@@H]1CN(Cc2ccc(C(=O)NO)cc2)C[C@H](C)N1C(=O)c1ccccc1-c1ccoc1` [Compound 284, 4-(((3R,5S)-4-(2-(furan-3-yl)benzoyl)-3,5-dimethylpiperazin-1-yl)methyl)-N-hydroxybenzamide], the IC50 turned out to be 5.7 µM on human recombinant HDAC1 and 0.068 µM at human recombinant HDAC6. The “HDAC6 selectivity (fold)” value on human recombinant HDAC6 is reported as 84 fold.
